{
  "source": "patent US20230108906A1",
  "about": "“SUBSTITUTED BICYCLIC AND TRICYCLIC UREAS AND AMIDES, ANALOGUES THEREOF, AND METHODS USING SAME” (Arbutus Biopharma Corporation, priority 2019, published 2023)",
  "data": [
    {"test_system": "HBV rcDNA in HepDE19 cells", "experiment": "HepDE19 assay with bDNA quantitation of HBV rcDNA", "type": "cell-based, hepatitis B virus (HBV)", "settings": "Hepatitis B virus, HepDE19, 168 h, inhibition of rcDNA formation in HepDE19 cells (HepG2 derived), Tet-free medium, 7 day incubation, Quantigene 2.0 bDNA readout, top concentration 25 μM; read-out: DE-19bDNA EC50", "method": "(§1) HepDE19 Assay with bDNA Quantitation of HBV rcDNA:\n(§2) HepDE19 cell culture system is a HepG2 (human hepatocarcinoma) derived cell line that supports HBV DNA replication and cccDNA formation in a tetracycline (Tet)-regulated manner and produces HBV rcDNA and a detectable reporter molecule dependent on the production and maintenance of cccDNA (Guo, et al., 2007, J. Virol. 81:12472-12484).\n(§3) HepDE19 (50,000 cells/well) were plated in 96-well collagen-coated tissue-culture treated microtiter plates in DMEM/F12 medium supplemented with 10% fetal bovine serum, 1% penicillin-streptomycin and 1 μg/mL tetracycline and incubated in a humidified incubator at 37° C. and 5% CO2 overnight. Next day, the cells were switched to fresh medium without tetracycline and incubated for 4 hours at 37° C. and 5% CO2. The cells were treated with fresh Tet-free medium with compounds at concentrations starting at 25 μM and a serial, […], 8-point, titration series in duplicate. The final DMSO concentration in the assay was 0.5%. The plates were incubated for 7 days in a humidified incubator at 37° C. and 5% CO2. Following a 7 day-incubation, the level of rcDNA present in the inhibitor-treated wells was measured using a Quantigene 2.0 bDNA assay kit (Affymetrix, Santa Clara, Calif.) with HBV specific custom probe set and manufacturers instructions. Concurrently, the effect of compounds on cell viability was assessed using replicate plates, plated at a density of 5,000 cells/well and incubated for 4 days, to determine the ATP content as a measure of cell viability using the cell-titer glo reagent (CTG; Promega Corporation, Madison, Wis.) as per manufacturer's instructions. The plates were read using a Victor luminescence plate reader (PerkinElmer Model 1420 Multilabel counter) and the relative luminescence units (RLU) data generated from each well was calculated as % inhibition of the untreated control wells and analyzed using XL-Fit module in Microsoft Excel to determine EC50 and EC90 (bDNA) and CC50 (CTG) values using a 4-parameter curve fitting algorithm.\n(§4) Representative compounds of the disclosure were tested for their abilities to inhibit formation of relaxed circular DNA (rcDNA) in a HepDE19 assay, as described elsewhere herein.", "units": {"EC50": "nM"}, "values": [
      {"smiles": "CN(C(=O)Nc1ccc(F)c(C(F)F)c1)C1COCc2[nH]c(=O)c3cc(F)ccc3c21", "note": "(single isomer, unassigned) [Compound 123, 3-(3-(Difluoromethyl)-4-fluorophenyl)-1-(8-fluoro-6-oxo-1,4,5,6-tetrahydro-2H-pyrano[3,4-c]isoquinolin-1-yl)-1-methylurea]", "EC50": 560},
      {"smiles": "CN(C(=O)Nc1ccc(F)c(C(F)F)c1)[C@H]1COCc2[nH]c(=O)c3cc(F)c(F)cc3c21", "note": "(single isomer, unassigned) [Compound 125]", "EC50": 490},
      {"smiles": "CN(C(=O)Nc1ccc(F)c(C(F)F)c1)[C@@H]1COCc2[nH]c(=O)c3cc(F)c(F)cc3c21", "note": "(single isomer, unassigned) [Compound 126]", "EC50": 10},
      {"smiles": "N#Cc1cc(NC(=O)N[C@@H]2COCc3[nH]c(=O)c4cc(F)c(F)cc4c32)ccc1F", "note": "(single isomer, unassigned) [Compound 135]", "EC50": 50}
    ]},
    {"test_system": "HBV rcDNA in HepDE19 cells", "experiment": "HepDE19 assay with bDNA quantitation of HBV rcDNA", "type": "cell-based, hepatitis B virus (HBV)", "settings": "inhibition of rcDNA formation in HepDE19 cells (HepG2 derived), Tet-free medium, 7 day incubation, Quantigene 2.0 bDNA readout, top concentration 25 μM; read-out: DE-19bDNA EC50", "method": "as §1, §2, §3, §4", "units": {"EC50": "nM"}, "values": [
      {"smiles": "CN(C(=O)Nc1ccc(F)cc1)C1COCc2[nH]c(=O)c3cc(F)c(F)cc3c21", "note": "(single isomer, unassigned) [Compound 104, 1-(8,9-Difluoro-6-oxo-1,4,5,6-tetrahydro-2H-pyrano[3,4-c]isoquinolin-1-yl)-3-(4-fluorophenyl)-1-methylurea]", "EC50": 20},
      {"smiles": "CN(C(=O)Nc1cc(F)c(F)c(Cl)c1)C1COCc2[nH]c(=O)c3cc(F)ccc3c21", "note": "(single isomer, unassigned) [Compound 107, 3-(3-Chloro-4,5-difluorophenyl)-1-(8-fluoro-6-oxo-1,4,5,6-tetrahydro-2H-pyrano[3,4-c]isoquinolin-1-yl)-1-methylurea]", "EC50": 930},
      {"smiles": "CN(C(=O)Nc1cc(F)c(F)c(Cl)c1)C1COCc2[nH]c(=O)c3cc(F)ccc3c21", "note": "(single isomer, unassigned) [Compound 108, 3-(3-Chloro-4,5-difluorophenyl)-1-(8-fluoro-6-oxo-1,4,5,6-tetrahydro-2H-pyrano[3,4-c]isoquinolin-1-yl)-1-methylurea]", "EC50": 20},
      {"smiles": "O=C(Nc1ccc(F)c(Cl)c1)N(CCCO)C1COCc2[nH]c(=O)c3cc(F)ccc3c21", "note": "(single isomer, unassigned) [Compound 109, 3-(3-Chloro-4-fluorophenyl)-1-(8-fluoro-6-oxo-1,4,5,6-tetrahydro-2H-pyrano[3,4-c]isoquinolin-1-yl)-1-(3-hydroxypropyl)urea]", "EC50": 620},
      {"smiles": "O=C(Nc1ccc(F)c(Cl)c1)N(CCCO)C1COCc2[nH]c(=O)c3cc(F)ccc3c21", "note": "(single isomer, unassigned) [Compound 110, 3-(3-Chloro-4-fluorophenyl)-1-(8-fluoro-6-oxo-1,4,5,6-tetrahydro-2H-pyrano[3,4-c]isoquinolin-1-yl)-1-(3-hydroxypropyl)urea]", "EC50": 20},
      {"smiles": "CC(C)(O)CN(C(=O)Nc1ccc(F)c(Cl)c1)C1COCc2[nH]c(=O)c3cc(F)ccc3c21", "note": "(single isomer, unassigned) [Compound 111, 3-(3-Chloro-4-fluorophenyl)-1-(8-fluoro-6-oxo-1,4,5,6-tetrahydro-2H-pyrano[3,4-c]isoquinolin-1-yl)-1-(2-hydroxy-2-methylpropyl)urea]", "EC50": 200},
      {"smiles": "CC(C)(O)CN(C(=O)Nc1ccc(F)c(Cl)c1)C1COCc2[nH]c(=O)c3cc(F)ccc3c21", "note": "(single isomer, unassigned) [Compound 112, 3-(3-Chloro-4-fluorophenyl)-1-(8-fluoro-6-oxo-1,4,5,6-tetrahydro-2H-pyrano[3,4-c]isoquinolin-1-yl)-1-(2-hydroxy-2-methylpropyl)urea]", "EC50": 1900},
      {"smiles": "CC(C)CN(C(=O)Nc1cc(F)c(F)c(F)c1)C1COCc2[nH]c(=O)c3cc(F)ccc3c21", "note": "(single isomer, unassigned) [Compound 113, 1-(8-Fluoro-6-oxo-2,4,5,6-tetrahydro-1H-pyrano[3,4-c]isoquinolin-1-yl)-1-isobutyl-3-(3,4,5-trifluorophenyl)urea]", "EC50": 20},
      {"smiles": "CC(C)CN(C(=O)Nc1cc(F)c(F)c(F)c1)C1COCc2[nH]c(=O)c3cc(F)ccc3c21", "note": "(single isomer, unassigned) [Compound 114, 1-(8-Fluoro-6-oxo-2,4,5,6-tetrahydro-1H-pyrano[3,4-c]isoquinolin-1-yl)-1-isobutyl-3-(3,4,5-trifluorophenyl)urea]", "EC50": 410},
      {"smiles": "CC(C)CN(C(=O)Nc1ccc(F)c(C#N)c1)C1COCc2[nH]c(=O)c3cc(F)ccc3c21", "note": "(single isomer, unassigned) [Compound 115, 3-(3-Cyano-4-fluorophenyl)-1-(8-fluoro-6-oxo-1,4,5,6-tetrahydro-2H-pyrano[3,4-c]isoquinolin-1-yl)-1-isobutylurea]", "EC50": 10},
      {"smiles": "CC(C)CN(C(=O)Nc1ccc(F)c(C#N)c1)C1COCc2[nH]c(=O)c3cc(F)ccc3c21", "note": "(single isomer, unassigned) [Compound 116, 3-(3-Cyano-4-fluorophenyl)-1-(8-fluoro-6-oxo-1,4,5,6-tetrahydro-2H-pyrano[3,4-c]isoquinolin-1-yl)-1-isobutylurea]", "EC50": 230},
      {"smiles": "CN(C(=O)Nc1ccc(F)c(F)c1)C1COCc2[nH]c(=O)c3cc(F)c(F)cc3c21", "note": "(single isomer, unassigned) [Compound 117, 1-(8,9-Difluoro-6-oxo-1,4,5,6-tetrahydro-2H-pyrano[3,4-c]isoquinolin-1-yl)-3-(3,4-difluorophenyl)-1-methylurea]", "EC50": 2700},
      {"smiles": "CN(C(=O)Nc1ccc(F)c(F)c1)C1COCc2[nH]c(=O)c3cc(F)c(F)cc3c21", "note": "(single isomer, unassigned) [Compound 118, 1-(8,9-Difluoro-6-oxo-1,4,5,6-tetrahydro-2H-pyrano[3,4-c]isoquinolin-1-yl)-3-(3,4-difluorophenyl)-1-methylurea]", "EC50": 10},
      {"smiles": "CC(C)CN(C(=O)Nc1ccc(F)c(C#N)c1)C1COCc2[nH]c(=O)c3cc(F)c(F)cc3c21", "note": "(single isomer, unassigned) [Compound 121, 3-(3-Cyano-4-fluorophenyl)-1-(8,9-difluoro-6-oxo-1,4,5,6-tetrahydro-2H-pyrano[3,4-c]isoquinolin-1-yl)-1-isobutylurea]", "EC50": 10},
      {"smiles": "CC(C)CN(C(=O)Nc1ccc(F)c(C#N)c1)C1COCc2[nH]c(=O)c3cc(F)c(F)cc3c21", "note": "(single isomer, unassigned) [Compound 122, 3-(3-Cyano-4-fluorophenyl)-1-(8,9-difluoro-6-oxo-1,4,5,6-tetrahydro-2H-pyrano[3,4-c]isoquinolin-1-yl)-1-isobutylurea]", "EC50": 120},
      {"smiles": "Cc1cc(NC(=O)N(CC(C)C)C2COCc3[nH]c(=O)c4cc(F)ccc4c32)ccc1F", "note": "(single isomer, unassigned) [Compound 131, 3-(4-Fluoro-3-methylphenyl)-1-(8-fluoro-6-oxo-1,4,5,6-tetrahydro-2H-pyrano[3,4-c]isoquinolin-1-yl)-1-isobutylurea]", "EC50": 10},
      {"smiles": "Cc1cc(NC(=O)N(CC(C)C)C2COCc3[nH]c(=O)c4cc(F)ccc4c32)ccc1F", "note": "(single isomer, unassigned) [Compound 132, 3-(4-Fluoro-3-methylphenyl)-1-(8-fluoro-6-oxo-1,4,5,6-tetrahydro-2H-pyrano[3,4-c]isoquinolin-1-yl)-1-isobutylurea]", "EC50": 150},
      {"smiles": "CN(C(=O)Nc1cc(F)c(F)c(F)c1)C1COCc2[nH]c(=O)c3cc(F)c(F)cc3c21", "note": "(single isomer, unassigned) [Compound 133, 1-(8,9-Difluoro-6-oxo-1,4,5,6-tetrahydro-2H-pyrano[3,4-c]isoquinolin-1-yl)-1-methyl-3-(3,4,5-trifluorophenyl)urea]", "EC50": 20},
      {"smiles": "CN(C(=O)Nc1cc(F)c(F)c(F)c1)C1COCc2[nH]c(=O)c3cc(F)c(F)cc3c21", "note": "(single isomer, unassigned) [Compound 134, 1-(8,9-Difluoro-6-oxo-1,4,5,6-tetrahydro-2H-pyrano[3,4-c]isoquinolin-1-yl)-1-methyl-3-(3,4,5-trifluorophenyl)urea]", "EC50": 990}
    ]},
    {"test_system": "HBV rcDNA in HepDE19 cells", "experiment": "HepDE19 assay with bDNA quantitation of HBV rcDNA", "type": "cell-based, hepatitis B virus (HBV)", "settings": "read-out: DE-19bDNA EC50; inhibition of rcDNA formation in HepDE19 cells (HepG2 derived), Tet-free medium, 7 day incubation, Quantigene 2.0 bDNA readout, top concentration 25 μM", "method": "as §1, §2, §3, §4", "units": {"EC50": "nM"}, "values": [
      {"smiles": "CN(C(=O)Nc1cccc(Cl)c1)C1COCc2[nH]c(=O)c3cc(F)c(F)cc3c21", "note": "(single isomer, unassigned) [Compound 119, 3-(3-Chlorophenyl)-1-(8,9-difluoro-6-oxo-1,4,5,6-tetrahydro-2H-pyrano[3,4-c]isoquinolin-1-yl)-1-methylurea]", "EC50": 1800},
      {"smiles": "CN(C(=O)Nc1cccc(Cl)c1)C1COCc2[nH]c(=O)c3cc(F)c(F)cc3c21", "note": "(single isomer, unassigned) [Compound 120, 3-(3-Chlorophenyl)-1-(8,9-difluoro-6-oxo-1,4,5,6-tetrahydro-2H-pyrano[3,4-c]isoquinolin-1-yl)-1-methylurea]", "EC50": 10}
    ]}
  ]
}
